Test results from patent publication US20260166128A1, “HUMAN AMYLIN ANALOG, AND DERIVATIVE THEREOF AND USE THEREOF” (priority 2022, published 2026).
Numbered stars: 1 amine (or outer) side, 2 acyl side, 3 side chain; on linkers, the order of the positions; unused ones are H or OH. Bridge positions count the residues as written; N and C are the ends. Square brackets hold non-standard residues; d marks the D form. Side chains are listed from the residue outwards. Peptide text beside a SMILES is read from it. * marks the point of attachment. C20 diacid = O=C(O)CCCCCCCCCCCCCCCCCCC(=O)*; C18 diacid = O=C(O)CCCCCCCCCCCCCCCCC(=O)*; γGlu = O=C(O)[C@H](CCC(=O)[*:2])N[*:1]; Hyp = O=C(O)[C@@H]1C[C@@H](O)CN1; AEEA = NCCOCCOCC(=O)O

Key:
human amylin receptor = biological target: T1, human amylin receptor (Homo sapiens, UniProt O60896+P30988); experiment: Luciferase assay of amylin derivatives in amylin receptor/CRE-luc CHO cell line; type: cell-based; conditions: CHO-K1/Ga15/AMY3 CRE-luc cells, 24 hours incubation, F12 medium containing 10% FBS; read-out: EC50
T1 construct: host or cells: CHO-K1/Ga15/AMY3 cells, further stably transfected with a CRE-luciferase plasmid
T1 sequence (P30988 25-474): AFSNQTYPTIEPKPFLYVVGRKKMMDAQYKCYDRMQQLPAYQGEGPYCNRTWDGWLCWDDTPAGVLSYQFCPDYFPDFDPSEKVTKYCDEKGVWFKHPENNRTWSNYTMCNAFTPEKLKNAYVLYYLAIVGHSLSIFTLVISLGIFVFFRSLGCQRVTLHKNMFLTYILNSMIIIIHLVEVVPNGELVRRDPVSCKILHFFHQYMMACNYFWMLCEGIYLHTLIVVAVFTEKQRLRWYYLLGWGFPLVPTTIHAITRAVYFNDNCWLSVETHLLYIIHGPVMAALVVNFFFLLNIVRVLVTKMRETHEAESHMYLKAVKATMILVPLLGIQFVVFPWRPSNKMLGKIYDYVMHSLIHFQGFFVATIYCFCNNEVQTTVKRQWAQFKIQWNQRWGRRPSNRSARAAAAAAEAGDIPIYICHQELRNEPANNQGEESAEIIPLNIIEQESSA
T1 sequence (O60896 24-148 partner): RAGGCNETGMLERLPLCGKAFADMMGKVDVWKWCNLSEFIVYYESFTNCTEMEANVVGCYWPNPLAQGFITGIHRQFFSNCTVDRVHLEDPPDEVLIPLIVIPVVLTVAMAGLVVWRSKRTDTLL
Description: The experiment was intended to detect the activity or efficacy of the amylin derivatives on a human amylin receptor in vitro by luciferase assay.
50 μL of growth medium (F12 medium containing 10% FBS) was added into each well of a white 96-well plate, and the stably transfected amylin/CRE-lue CHO cells were inoculated into the white 96-well plate at a density of about 20,000 cells/well for activity determination.

[1] = Freeze-thaw stability of derivatives (freeze-thaw yield by liquid chromatography); type: physicochemical; conditions: for Dissolution property: appearance after dissolution at 0.2 mg/ml in 20 mM phosphate buffer solution (PB) (pH 7.0); for Freeze storage property: appearance after overnight storage at −20° C. and thawing to room temperature, 0.2 mg/ml in 20 mM PB (pH 7.0); for Freeze storage yield: concentration of polypeptide after freezing and thawing / concentration before, by liquid chromatography, −20° C. overnight
Summary of the method: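 Freeze-thaw yield is the ratio of peptide concentration after versus before one overnight −20° C freeze and room-temperature thaw, both quantified by RP-HPLC of supernatant after centrifugation. Samples were 0.2 mg/ml freeze-dried derivative in 20 mM PB, pH 7.0.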

Compound	EC50 (human amylin receptor) [nM]	Dissolution property [1]	Freeze storage property [1]	Freeze storage yield [1] [%]
CC[C@H](C)[C@H](NC(=O)[C@@H]1CCCN1C(=O)CNC(=O)[C@H](CC(C)C)NC(=O)[C@H](CCCCNC(=O)COCCOCCNC(=O)COCCOCCNC(=O)CC[C@H](NC(=O)CCCCCCCCCCCCCCCCCCC(=O)O)C(=O)O)NC(=O)[C@H](CC(N)=O)NC(=O)[C@H](CO)NC(=O)[C@H](CO)NC(=O)[C@H](Cc1c[nH]cn1)NC(=O)[C@H](CCCNC(=N)N)NC(=O)[C@H](CC(C)C)NC(=O)[C@H](Cc1ccccc1)NC(=O)[C@H](CC(=O)O)NC(=O)[C@H](C)NC(=O)[C@H](CC(C)C)NC(=O)[C@H](CCCNC(=N)N)NC(=O)[C@H](CCC(N)=O)NC(=O)[C@@H](NC(=O)[C@H](C)NC(=O)[C@@H]1CSSC[C@H](NC(=O)[C@@H](N)CCCNC(=N)N)C(=O)N[C@@H](CC(N)=O)C(=O)N[C@@H]([C@@H](C)O)C(=O)N[C@@H](C)C(=O)N[C@@H]([C@@H](C)O)C(=O)N1)[C@@H](C)O)C(=O)N[C@@H](CC(C)C)C(=O)N1CCC[C@H]1C(=O)N1CCC[C@H]1C(=O)N[C@H](C(=O)N[C@@H](CC(N)=O)C(=O)N[C@H](C(=O)NCC(=O)N[C@@H](CO)C(=O)N[C@@H](CC(N)=O)C(=O)N[C@H](C(=O)N1C[C@H](O)C[C@H]1C(N)=O)[C@@H](C)O)C(C)C)[C@@H](C)O [PD087] (H-RCNTATCATQRLADFLRHSSNK([AEEA-AEEA-γGlu-C20 diacid])LGPILPPTNVGSNT[Hyp]-NH2; disulfide 2-7 (inferred); N-terminus assumed)	0.032	Clear	Clear	102.65
CC[C@H](C)[C@H](NC(=O)[C@@H]1CCCN1C(=O)CNC(=O)[C@H](CC(C)C)NC(=O)[C@H](CCCCNC(=O)CC[C@H](NC(=O)CCCCCCCCCCCCCCCCC(=O)O)C(=O)O)NC(=O)[C@H](CC(N)=O)NC(=O)[C@H](CO)NC(=O)[C@H](CO)NC(=O)[C@H](Cc1c[nH]cn1)NC(=O)[C@H](CCCNC(=N)N)NC(=O)[C@H](CC(C)C)NC(=O)[C@H](Cc1ccccc1)NC(=O)[C@H](CC(=O)O)NC(=O)[C@H](C)NC(=O)[C@H](CC(C)C)NC(=O)[C@H](CCCNC(=N)N)NC(=O)[C@H](CCC(N)=O)NC(=O)[C@@H](NC(=O)[C@H](C)NC(=O)[C@@H]1CSSC[C@H](NC(=O)[C@@H](N)CCCNC(=N)N)C(=O)N[C@@H](CC(N)=O)C(=O)N[C@@H]([C@@H](C)O)C(=O)N[C@@H](C)C(=O)N[C@@H]([C@@H](C)O)C(=O)N1)[C@@H](C)O)C(=O)N[C@@H](CC(C)C)C(=O)N1CCC[C@H]1C(=O)N1CCC[C@H]1C(=O)N[C@H](C(=O)N[C@@H](CC(N)=O)C(=O)N[C@H](C(=O)NCC(=O)N[C@@H](CO)C(=O)N[C@@H](CC(N)=O)C(=O)N[C@H](C(=O)N1C[C@H](O)C[C@H]1C(N)=O)[C@@H](C)O)C(C)C)[C@@H](C)O [PD088] (H-RCNTATCATQRLADFLRHSSNK([γGlu-C18 diacid])LGPILPPTNVGSNT[Hyp]-NH2; disulfide 2-7 (inferred); N-terminus assumed)	0.013	Clear	Clear	120.04
CC[C@H](C)[C@H](NC(=O)[C@@H]1CCCN1C(=O)CNC(=O)[C@H](CC(C)C)NC(=O)[C@H](CC(N)=O)NC(=O)[C@H](CCCCNC(=O)COCCOCCNC(=O)COCCOCCNC(=O)CC[C@H](NC(=O)CCCCCCCCCCCCCCCCC(=O)O)C(=O)O)NC(=O)[C@H](CO)NC(=O)[C@H](CO)NC(=O)[C@H](Cc1c[nH]cn1)NC(=O)[C@H](CCCNC(=N)N)NC(=O)[C@H](CC(C)C)NC(=O)[C@H](Cc1ccccc1)NC(=O)[C@H](CC(=O)O)NC(=O)[C@H](C)NC(=O)[C@H](CC(C)C)NC(=O)[C@H](CCCNC(=N)N)NC(=O)[C@H](CCC(N)=O)NC(=O)[C@@H](NC(=O)[C@H](C)NC(=O)[C@@H]1CSSC[C@H](NC(=O)[C@@H](N)CCCNC(=N)N)C(=O)N[C@@H](CC(N)=O)C(=O)N[C@@H]([C@@H](C)O)C(=O)N[C@@H](C)C(=O)N[C@@H]([C@@H](C)O)C(=O)N1)[C@@H](C)O)C(=O)N[C@@H](CC(C)C)C(=O)N1CCC[C@H]1C(=O)N1CCC[C@H]1C(=O)N[C@H](C(=O)N[C@@H](CC(N)=O)C(=O)N[C@H](C(=O)NCC(=O)N[C@@H](CO)C(=O)N[C@@H](CC(N)=O)C(=O)N[C@H](C(=O)N1C[C@H](O)C[C@H]1C(N)=O)[C@@H](C)O)C(C)C)[C@@H](C)O [PD093] (H-RCNTATCATQRLADFLRHSSK([AEEA-AEEA-γGlu-C18 diacid])NLGPILPPTNVGSNT[Hyp]-NH2; disulfide 2-7 (inferred); N-terminus assumed)	0.019	Clear	Clear	99.86
CC[C@H](C)[C@H](NC(=O)[C@@H]1CCCN1C(=O)CNC(=O)[C@H](CC(C)C)NC(=O)[C@H](CC(N)=O)NC(=O)[C@H](CC(N)=O)NC(=O)[C@H](CCCCNC(=O)CC[C@H](NC(=O)CCCCCCCCCCCCCCCCCCC(=O)O)C(=O)O)NC(=O)[C@H](CO)NC(=O)[C@H](Cc1c[nH]cn1)NC(=O)[C@H](CCCNC(=N)N)NC(=O)[C@H](CC(C)C)NC(=O)[C@H](Cc1ccccc1)NC(=O)[C@H](CC(=O)O)NC(=O)[C@H](C)NC(=O)[C@H](CC(C)C)NC(=O)[C@H](CCCNC(=N)N)NC(=O)[C@H](CCC(N)=O)NC(=O)[C@@H](NC(=O)[C@H](C)NC(=O)[C@@H]1CSSC[C@H](NC(=O)[C@@H](N)CCCNC(=N)N)C(=O)N[C@@H](CC(N)=O)C(=O)N[C@@H]([C@@H](C)O)C(=O)N[C@@H](C)C(=O)N[C@@H]([C@@H](C)O)C(=O)N1)[C@@H](C)O)C(=O)N[C@@H](CC(C)C)C(=O)N1CCC[C@H]1C(=O)N1CCC[C@H]1C(=O)N[C@H](C(=O)N[C@@H](CC(N)=O)C(=O)N[C@H](C(=O)NCC(=O)N[C@@H](CO)C(=O)N[C@@H](CC(N)=O)C(=O)N[C@H](C(=O)N1C[C@H](O)C[C@H]1C(N)=O)[C@@H](C)O)C(C)C)[C@@H](C)O [PD094] (H-RCNTATCATQRLADFLRHSK([γGlu-C20 diacid])NNLGPILPPTNVGSNT[Hyp]-NH2; disulfide 2-7 (inferred); N-terminus assumed)	0.034	Clear	Clear	102.94
CC[C@H](C)[C@H](NC(=O)[C@H](CCCCNC(=O)COCCOCCNC(=O)COCCOCCNC(=O)CC[C@H](NC(=O)CCCCCCCCCCCCCCCCCCC(=O)O)C(=O)O)NC(=O)CNC(=O)[C@H](CC(C)C)NC(=O)[C@H](CC(N)=O)NC(=O)[C@H](CC(N)=O)NC(=O)[C@H](CO)NC(=O)[C@H](CO)NC(=O)[C@H](Cc1c[nH]cn1)NC(=O)[C@H](CCCNC(=N)N)NC(=O)[C@H](CC(C)C)NC(=O)[C@H](Cc1ccccc1)NC(=O)[C@H](CC(=O)O)NC(=O)[C@H](C)NC(=O)[C@H](CC(C)C)NC(=O)[C@H](CCCNC(=N)N)NC(=O)[C@H](CCC(N)=O)NC(=O)[C@@H](NC(=O)[C@H](C)NC(=O)[C@@H]1CSSC[C@H](NC(=O)[C@@H](N)CCCNC(=N)N)C(=O)N[C@@H](CC(N)=O)C(=O)N[C@@H]([C@@H](C)O)C(=O)N[C@@H](C)C(=O)N[C@@H]([C@@H](C)O)C(=O)N1)[C@@H](C)O)C(=O)N[C@@H](CC(C)C)C(=O)N1CCC[C@H]1C(=O)N1CCC[C@H]1C(=O)N[C@H](C(=O)N[C@@H](CC(N)=O)C(=O)N[C@H](C(=O)NCC(=O)N[C@@H](CO)C(=O)N[C@@H](CC(N)=O)C(=O)N[C@H](C(=O)N1C[C@H](O)C[C@H]1C(N)=O)[C@@H](C)O)C(C)C)[C@@H](C)O [PD103] (H-RCNTATCATQRLADFLRHSSNNLGK([AEEA-AEEA-γGlu-C20 diacid])ILPPTNVGSNT[Hyp]-NH2; disulfide 2-7 (inferred); N-terminus assumed)	0.033	Clear	Clear	98.68
